Data on twelve compounds can be found in ChEMBL document CHEMBL2034899, “5-Arylbenzothiadiazine Type Compounds as Positive Allosteric Modulators of AMPA/Kainate Receptors” (ACS Med Chem Lett, 2012).

For orientation: EC50 means the concentration needed to bring the measured effect to its halfway point.

Structures are written as SMILES. The source made the active and inactive calls. The rule behind the calls is not given here.

Data set [1] can be described thus: Positive allosteric modulation at AMPA receptor in primary cortical neurons assessed as potentiation of kainate-induced current by patch clamp analysis. Particulars: Cerebral cortex neuron. Format: cell-based. (In general: In patch-clamp work, channel activity is measured electrically.)
The nature of data set [2]: Drug uptake in mouse nucleus accumbens at 20 mg/kg, ip measured after 2 hrs. Set-up: dose 20 mg/kg, route intraperitoneal. Particulars: in vivo. In kind it is ADME, organism-based.
Data set [3] has as its system Cerebral cortex neuron. The data set is described as follows: Positive allosteric modulation at AMPA receptor in primary cortical neurons assessed as potentiation of kainate-induced current at 10 uM by patch clamp analysis. Format: cell-based.
Data set [4] can be described thus: Drug uptake in mouse nucleus accumbens assessed as 7-chloro-5-(3-furyl)-3- methyl-4H-1,2,4-benzothiadiazine 1,1-dioxide level at 20 mg/kg, ip measured after 2 hrs. In kind it is ADME, organism-based. Details: dose 20 mg/kg, route intraperitoneal. The conditions noted are these: in vivo.
Data set [5] can be described thus: Drug uptake in mouse nucleus accumbens assessed as 7-chloro-5-(3-furyl)-3- methyl-4H-1,2,4-benzothiadiazine 1,1-dioxide level at 20 mg/kg, ip measured after 1 hr. In kind it is ADME, organism-based. Details: dose 20 mg/kg, route intraperitoneal. The conditions noted are these: in vivo, read-out: Drug uptake.
A short description of data set [6]: Drug uptake in mouse nucleus accumbens assessed as 7-chloro-5-(3-furyl)-3- methyl-4H-1,2,4-benzothiadiazine 1,1-dioxide level at 20 mg/kg, ip measured after 140 mins. Format: ADME, organism-based. Details: dose 20 mg/kg, route intraperitoneal. The conditions noted are these: in vivo.
The nature of data set [7]: Drug uptake in mouse nucleus accumbens at 20 mg/kg, ip measured after 40 mins. Format: ADME, organism-based. Set-up: dose 20 mg/kg, route intraperitoneal. Particulars: read-out: Drug uptake.
The test system of data set [8] is Cerebral cortex neuron. Briefly: Positive allosteric modulation at AMPA receptor in primary cortical neurons assessed as potentiation of kainate-induced current at 100 uM by patch clamp analysis.

As for `CC1Nc2c(-c3ccoc3)cc(Cl)cc2S(=O)(=O)N1` (stereo not given), the EC50 in data set [1] was 1300 nM. In addition, the Drug uptake entry in data set [2] was “Not Active”; in data set [4] it was “Active”; in data set [6], “Not Active”. In the data set on Cerebral cortex neuron [3], the Activity was determined as 358%. For the same compound, the concentration in data set [5] was determined as 8 µM. The concentration at 40 min in data set [7] was found to be 37 µM. Moreover, the outcome in the data set with Cerebral cortex neuron [8] was inactive.

In the case of `O=C(O)c1ccc(-c2cc(Cl)cc3c2NCNS3(=O)=O)cc1`, the Activity in the data set on Cerebral cortex neuron [3] was less than 10%. Further, the outcome in the data set on Cerebral cortex neuron [8] was inactive.

For `CCC1Nc2c(-c3ccco3)cc(Cl)cc2S(=O)(=O)N1` (stereo not given), the Activity in the data set on Cerebral cortex neuron [3] was less than 10%. The result in the data set on Cerebral cortex neuron [8] was inactive.

Regarding `CC1Nc2c(-c3ccsc3)cc(Cl)cc2S(=O)(=O)N1` (stereo not given), the Activity in the data set on Cerebral cortex neuron [3] worked out at 214%. The result in the data set with Cerebral cortex neuron [8] was inactive.

For `CC1Nc2c(-c3ccco3)cc(Cl)cc2S(=O)(=O)N1` (stereo not given), the Activity in the data set on Cerebral cortex neuron [3] was determined as 80%. Besides, the outcome in the data set on Cerebral cortex neuron [8] was inactive.

Turning to `CC1Nc2c(-c3cccc(N)c3)cc(Cl)cc2S(=O)(=O)N1` (stereo not given), the Activity in the data set on Cerebral cortex neuron [3] was less than 10%. Also, the outcome with Cerebral cortex neuron [8] was inactive.

On to `Nc1cccc(-c2cc(Cl)cc3c2NCNS3(=O)=O)c1`, for which the Activity with Cerebral cortex neuron [3] is less than 10%. Also, in the data set with Cerebral cortex neuron [8], the outcome was inactive.

Regarding `CCC1Nc2c(-c3ccc(C(=O)O)cc3)cc(Cl)cc2S(=O)(=O)N1` (stereo not given), the Activity with Cerebral cortex neuron [3] was less than 10%. In addition, in the data set with Cerebral cortex neuron [8], the result was inactive.

`CC1Nc2c(-c3cccs3)cc(Cl)cc2S(=O)(=O)N1` (stereo not given): in the data set with Cerebral cortex neuron [3], the Activity is less than 10%. For the same compound, the result in the data set with Cerebral cortex neuron [8] was inactive.

With `CC1CN2c3c1cc(Cl)cc3S(=O)(=O)NC2C` (racemic), in the data set with Cerebral cortex neuron [3], the Activity came out at 53%. The outcome in the data set on Cerebral cortex neuron [8] was inactive.

`CC1Nc2c(-c3ccc(C(=O)O)cc3)cc(Cl)cc2S(=O)(=O)N1` (stereo not given): in the data set on Cerebral cortex neuron [3], the Activity is less than 10%. Besides, the outcome with Cerebral cortex neuron [8] was inactive.

In the case of `O=S1(=O)NCNc2c(-c3ccco3)cc(Cl)cc21`, in the data set with Cerebral cortex neuron [3], the Activity stood at 20%. Also, the outcome in the data set with Cerebral cortex neuron [8] was inactive.
